Test system: anesthetized cat
Test: Determination of the effect on blood pressure and of the positive inotropic effect in the anesthetized cat
Type: in vivo
Conditions: injected into vena femoralis, average, at least 3 cats; for Effect on blood pressure in mm Hg (first figure of pair) / Effect on blood pressure in mm Hg (second figure of pair): arterial pressure in aorta abdominalis
Description: The above pharmacological properties were ascertained for the compounds of the present invention by the standard pharmacological test method described below, and the results of this test for two representative species of the genus are shown in the table below, where
Determination of the effect on blood pressure and of the positive inotropic effect in the anesthetized cat
The tests were carried out on cats which had been anesthetized with sodium pentobarbital (40 mg/kg i.p.). The animals breathed spontaneously. The arterial blood pressure was measured in the aorta abdominalis with a Statham pressure transducer (P 23 Dc). In order to determine the positive inotropic activity, the pressure in the left ventricle was measured with a catheter-tip manometer (Millar PC-350 A). From this the contractility parameter dp/dt was obtained, using an analog differentiator. The test compounds were injected into a vena femoralis. Polydiol 200 was used as the solvent. Each compound was tested on at least 3 cats.

## COc1cc(OS(C)(=O)=O)ccc1-c1nc2nccnc2[nH]1 [A, 2-(2-methoxy-4-methanesulfonyloxy-phenyl)-imidazo[4,5-b]pyrazine]
0.6 mg/kg
  Effect on blood pressure in mm Hg (first figure of pair): -24 mm Hg
  Effect on blood pressure in mm Hg (second figure of pair): -21 mm Hg
  Duration of activity (half life): 20 min
  Increase in dp/dtmax in %: 54%

## COc1cc(OS(C)(=O)=O)ccc1-c1nc2cnncc2[nH]1 [B, 2-(2-Methoxy-4-methanesulfonyloxy-phenyl)-imidazo[4,5-d]pyridazine]
0.3 mg/kg
  Effect on blood pressure in mm Hg (first figure of pair): -31 mm Hg
  Effect on blood pressure in mm Hg (second figure of pair): -18 mm Hg
  Duration of activity (half life): 38 min
  Increase in dp/dtmax in %: 36%
